{
  "source": "paper PMC7238241",
  "about": "“Lack of Correlation between In Vitro and In Vivo Studies on the Inhibitory Effects of (‒)-Sophoranone on CYP2C9 Is Attributable to Low Oral Absorption and Extensive Plasma Protein Binding of (‒)-Sophoranone” (Pharmaceutics, 2020)",
  "key": {"[1]": {"assay": "Effects of SPN on the pharmacokinetics of diclofenac in rats", "conditions": "male, Sprague-Dawley, rat, plasma, po, 2 mg/kg, oral diclofenac 2 mg/kg, n = 6; for AUC(0-t): AUCt; for AUC(0-t) / AUC(0-inf) / Cmax / Tmax: rats; for Tmax: median (ranges); for half-life: t1/2, rats", "description": "(§4) The carotid arteries of each rat were cannulated with a polyethylene tube (Clay Adams, Franklin Lakes, NJ, USA) for blood sampling. Each rat was individually housed in a rat metabolic cage and allowed to recover from anesthesia for 4–5 h prior to the start of the experiment. […] SPN was suspended in dimethylsulfoxide:PEG400:distilled water (5:60:35, v/v/v) and administered by oral gavage at a dose of 75 mg/kg in a volume of 5 mL/kg. […] The blood samples were immediately centrifuged at 13,000× g for 5 min at 4 °C. The plasma samples were divided into two Eppendorf tubes by 50 μL and stored at −80 °C until LC-MS/MS analysis.\n(§5) Briefly, 50 μL aliquots of plasma were extracted with 300 μL aliquots of acetonitrile containing chlorpropamide (internal standard), followed by LC-MS/MS (Shimadzu Corporation). Chromatographic separation was performed on a Phenomenex Luna C18 column (100 × 2.00 mm; 3.0 μm). The isocratic mobile phase consisted of 0.1% formic acid in distilled water (A) and 0.1% formic acid in acetonitrile (B) (45:55, v/v), with a flow rate of 0.3 mL/min. […] The data acquisition was computed using LabSolutions LCMS Ver.5.6 (Shimadzu Corporation).\n(§6) Pharmacokinetic parameters were calculated by a non-compartmental analysis using WinNonlin Professional software (version 5.2, Pharsight Corp., Mountain View, CA, USA) that used the total area under the plasma concentration–time curve from time zero to infinity (AUC∞) or the last measured time (AUCt). The logarithmic trapezoidal rule was used during the declining plasma level phase and the linear trapezoidal rule was used for the rising plasma-level phase. The peak plasma concentration (Cmax) and time to reach Cmax (Tmax) were read directly from the experimental data. Statistically significant differences were recognized at p < 0.05."}, "in vivo": {"assay": "in vivo", "conditions": "male, Sprague-Dawley, rat, po, 2 mg/kg", "description": "as §4, §5, §6"}, "[2]": {"conditions": "male, Sprague-Dawley, rat, in vivo, po, 2 mg/kg", "description": "as §4, §5, §6"}, "CYP2E1": {"biological_target": "T1, CYP2E1 (Homo sapiens, UniProt P05181)", "T1 construct": "tissue Corning Life Sciences; host or cells: pooled human liver microsomes, 150 donors", "T1 sequence (P05181 whole entry)": "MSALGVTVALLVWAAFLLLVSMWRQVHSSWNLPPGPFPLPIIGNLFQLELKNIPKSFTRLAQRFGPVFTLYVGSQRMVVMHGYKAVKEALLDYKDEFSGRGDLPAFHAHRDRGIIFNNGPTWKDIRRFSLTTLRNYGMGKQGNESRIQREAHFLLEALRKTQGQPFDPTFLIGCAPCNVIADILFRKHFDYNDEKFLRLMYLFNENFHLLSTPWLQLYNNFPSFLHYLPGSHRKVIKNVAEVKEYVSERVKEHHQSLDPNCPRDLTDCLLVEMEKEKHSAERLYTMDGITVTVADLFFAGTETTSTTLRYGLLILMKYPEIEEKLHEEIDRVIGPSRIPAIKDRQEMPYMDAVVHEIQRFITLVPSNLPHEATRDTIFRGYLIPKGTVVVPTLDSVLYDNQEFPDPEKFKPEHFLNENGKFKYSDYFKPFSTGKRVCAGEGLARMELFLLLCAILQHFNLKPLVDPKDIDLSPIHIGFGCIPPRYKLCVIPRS", "assay": "Reversible CYP2E1 inhibition, cocktail assay (chlorzoxazone 6-hydroxylase) in human liver microsomes", "format": "biochemical", "procedure": "(§1) The inhibitory effects of SPN on CYP1A2, CYP2A6, CYP2B6, CYP2C8, CYP2C9, CYP2C19, CYP2D6, CYP2E1, and CYP3A4 were evaluated in pooled human liver microsomes through the use of specific CYP probe substrates (cocktail assay), as previously described with a slight modification. Concentrations of each CYP probe in Table 1 were used close to their reported Km values.\n(§2) Briefly, a 90-µL incubation mixture, including pooled human liver microsomes (final concentration 0.1 mg/mL), 50 mM phosphate buffer (pH 7.4), each CYP-probe substrate cocktail set, and SPN (0–50 μM), was pre-incubated for 5 min at 37 °C. SPN was dissolved in methanol and spiked into the incubation mixture to a final concentration of 0.5% methanol. All P450-selective substrates (except coumarin due to solubility) were dissolved in methanol and serially diluted with methanol to the required concentrations, and the organic solvent was subsequently evaporated under a gentle stream of N2 gas to minimize the effects of organic solvents on CYP activities. On the other hand, coumarin dissolved in 50 mM phosphate buffer (pH 7.4) was directly added into the mixed tube. The reaction was initiated by adding 10-µL aliquot of NADPH-generating system (1.3 mM NADP^+, 3.3 mM glucose 6-phosphate, 3.3 mM MgCl2, and 0.4 unit/mL glucose-6-phosphate dehydrogenase) before 15 min incubation at 37 °C in a shaking water bath. […]\n(§3) The IC50 values were calculated via nonlinear least-squares regression analysis from logarithmic plots of inhibitor concentration versus percentage of activity remaining after inhibition, using SigmaPlot (ver. 14.0; Systat Software Inc, Chicago, IL, USA). The Ki values were determined from the equations for a single substrate single inhibitor model and the software available in the SigmaPlot Enzyme Kinetics module. Competitive, non-competitive, uncompetitive, or mixed inhibition models were evaluated and ranked according to the best fit based on Akaike Information Criterion (AIC) values. […]"}, "[3]": {"conditions": "cited from earlier work"}, "CYP2C8": {"system": "CYP2C8", "conditions": "in humans; cited from earlier work"}, "CYP1A2": {"system": "CYP1A2", "conditions": "not in vivo because of high plasma protein binding; cited from earlier work"}, "CYP2A6": {"biological_target": "T2, CYP2A6 (Homo sapiens, UniProt P11509)", "T2 construct": "tissue Corning Life Sciences; host or cells: pooled human liver microsomes, 150 donors", "T2 sequence (P11509 1-494)": "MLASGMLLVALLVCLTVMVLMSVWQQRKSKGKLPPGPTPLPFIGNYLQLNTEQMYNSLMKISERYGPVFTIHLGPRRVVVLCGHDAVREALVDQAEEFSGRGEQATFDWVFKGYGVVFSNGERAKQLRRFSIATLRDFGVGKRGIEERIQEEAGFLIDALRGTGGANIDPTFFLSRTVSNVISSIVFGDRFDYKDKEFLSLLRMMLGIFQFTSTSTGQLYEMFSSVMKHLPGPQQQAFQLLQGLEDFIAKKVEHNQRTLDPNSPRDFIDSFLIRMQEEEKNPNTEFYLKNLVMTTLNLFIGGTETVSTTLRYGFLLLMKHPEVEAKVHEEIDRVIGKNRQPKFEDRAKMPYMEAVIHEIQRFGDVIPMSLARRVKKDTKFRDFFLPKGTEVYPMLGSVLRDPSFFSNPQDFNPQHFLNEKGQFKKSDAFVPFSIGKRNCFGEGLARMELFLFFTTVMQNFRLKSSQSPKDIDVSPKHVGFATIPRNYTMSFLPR", "assay": "Reversible CYP2A6 inhibition, cocktail assay (coumarin 7-hydroxylase) in human liver microsomes", "format": "biochemical", "procedure": "as §1, §2, §3"}, "[4]": {"assay": "Bi-directional Caco-2 cell permeability", "format": "in vitro ADME", "conditions": "human, Caco-2; 10 μM, 2 h, n = 3", "procedure": "Caco-2 cell permeability was assessed to predict the oral absorption of SPN. Cell culture and transport studies were performed as previously described. Briefly, for the bi-directional transport studies, the cells were seeded at a density of 1 × 10^5 cells/well, and the cell medium was replaced until they formed confluent monolayers. On the 25th day, the cell monolayers were washed with pre-warmed HBSS buffer. […] Before the experiment, the integrity of the cell monolayers was evaluated by measuring the transepithelial electrical resistance using a Millicell ohmmeter. After 2 h incubation at 37 °C, samples were withdrawn from both sides, respectively. All samples were stored at −80 °C until LC-MS/MS analysis, and all experiments were performed in triplicate.\nThe apparent permeability coefficient (Papp) was calculated using the following equation. Papp = (Vr/C0) × (1/A) × ([Drug]/t) where, Vr is the volume of medium in the receiver chamber, C0 is the donor compartment concentration at time zero, A is the area of the cell monolayer, t is the treatment time of the drug, and [Drug] is the drug concentration in the receiver chamber."}},
  "note": "Where two headings read alike, the source gives them in different places.",
  "data": [
    {"smiles": "O=C(O)Cc1ccccc1Nc1c(Cl)cc(O)cc1Cl", "note": "[4′-hydroxydiclofenac]", "values": [
      {"measurement": "AUC(0-t)", "setting": "[1]; with oral SPN 75 mg/kg", "value": 742, "unit": "ng·h/mL"},
      {"measurement": "AUC(0-t)", "setting": "[1]; without SPN", "value": 747, "unit": "ng·h/mL"},
      {"measurement": "AUC(0-inf)", "setting": "[1]; with oral SPN 75 mg/kg", "value": 1130, "unit": "ng·h/mL"},
      {"measurement": "AUC(0-inf)", "setting": "[1]; without SPN", "value": 1140, "unit": "ng·h/mL"},
      {"measurement": "Cmax", "setting": "[1]; with oral SPN 75 mg/kg", "value": "173 ± 40.8", "unit": "ng/mL"},
      {"measurement": "Cmax", "setting": "[1]; without SPN", "value": "180 ± 55.2", "unit": "ng/mL"},
      {"measurement": "Tmax", "setting": "[1]; with oral SPN 75 mg/kg", "value": 15, "unit": "min"},
      {"measurement": "Tmax", "setting": "[1]; without SPN", "value": 10, "unit": "min"},
      {"measurement": "half-life", "setting": "[1]; with oral SPN 75 mg/kg", "value": "296 ± 59.7", "unit": "min"},
      {"measurement": "half-life", "setting": "[1]; without SPN", "value": "278 ± 70", "unit": "min"}
    ]},
    {"smiles": "O=C(O)Cc1ccccc1Nc1c(Cl)cccc1Cl", "note": "[Diclofenac]", "values": [
      {"measurement": "AUC(0-t)", "setting": "in vivo; AUCt", "value": 1060, "unit": "ng·h/mL"},
      {"measurement": "AUC(0-inf)", "setting": "in vivo; AUC∞", "value": 1200, "unit": "ng·h/mL"},
      {"measurement": "Cmax", "setting": "in vivo; Cmax", "value": "882 ± 245", "unit": "ng/mL"},
      {"measurement": "Tmax", "setting": "in vivo; Tmax, median (ranges)", "value": 5, "unit": "min"},
      {"measurement": "half-life", "setting": "in vivo; t1/2", "value": "153 ± 60.1", "unit": "min"},
      {"measurement": "AUCt", "setting": "[2]", "value": "69.4 ± 2.98", "unit": "µg·min/mL"}
    ]},
    {"smiles": "CCN(CC)C(=S)S", "note": "[Diethyldithiocarbamate, reference compound]", "values": [
      {"measurement": "IC50", "setting": "CYP2E1", "value": "12 ± 3.67", "unit": "µM"}
    ]},
    {"smiles": "CC(C)(O)c1ccccc1CC[C@@H](SCC1(CC(=O)O)CC1)c1cccc(/C=C/c2ccc3ccc(Cl)cc3n2)c1", "note": "[Montelukast]", "values": [
      {"measurement": "plasma protein binding", "setting": "[3]; reference not given", "value": "> 99.7", "unit": "%"},
      {"measurement": "effect on the pharmacokinetics of the CYP2C8 substrates pioglitazone and rosiglitazone", "setting": "CYP2C8", "value": "no effect"}
    ]},
    {"smiles": "Cc1c(Cl)cccc1Nc1ccccc1C(=O)O", "note": "[Tolfenamic acid]", "values": [
      {"measurement": "plasma protein binding", "setting": "[3]", "value": 99.7, "unit": "%"},
      {"measurement": "CYP1A2 inhibition in vitro", "setting": "CYP1A2", "value": "strongly inhibited CYP1A2 in vitro"}
    ]},
    {"smiles": "NCCc1c[nH]c2ccccc12", "note": "[Tryptamine, reference compound]", "values": [
      {"measurement": "IC50", "setting": "CYP2A6", "value": "2980 ± 635", "unit": "nM"}
    ]},
    {"smiles": "CC(C)NCC(O)COc1cccc2ccccc12", "note": "(centres unmarked) [propranolol, reference compound]", "values": [
      {"measurement": "Papp B→A at 2 h, 10 µM", "setting": "[4]", "value": "21.5 ± 2.19", "unit": "×10⁻⁶ cm/s"}
    ]}
  ]
}
